Earlier results as cited in patent US20050261194A1, “Use of thymulin-like peptides for making pain-relieving medicines” (priority 2001, published 2005).
Where no end group is shown, it is not given here. [ ]: non-standard residue; d: D form. pGlu = O=C1CC[C@@H](C(=O)O)N1

Test system: rat
Settings: cited from earlier work

For “PyroGlu-Ala-Lys-Ser-Gln-Gly-Gly-Ser-Asn ([pGlu]AKSQGGSN) [thymuline]”, the “effect on hyperalgesia at higher doses” value (micrograms in the rat, 50-100 μg/kg) is listed as “reduces hyperalgesia” and the “effect on hyperalgesia at low dose” value (nanograms in the rat, 0.2 to 20 μg/kg) is listed as “induces hyperalgesia”.
